In ChEMBL document CHEMBL4651402, “Screening of ~5500 FDA-approved drugs and clinical candidates for anti-SARS-CoV-2 activity” (2021):
Numbered stars: 1 amine (or outer) side, 2 acyl side, 3 side chain; on linkers, the order of the positions; unused ones are H or OH. Bridge positions count the residues as written; N and C are the ends. Square brackets hold non-standard residues; d marks the D form. Peptide text beside a SMILES is read from it. I, II: the chains in the order shown. Actinocin(1to9) = Cc1c2oc3c(C)ccc(C(=O)[*:2])c3nc-2c(C(=O)[*:1])c(N)c1=O; NMeV = CN[C@H](C(=O)O)C(C)C; Sar = CNCC(=O)O

Test system: SARS-CoV-2
Assay: microbe, parasite or virus in culture
Details: Severe acute respiratory syndrome coronavirus 2, Vero C1008, 48 h

Row | Structure (SMILES) | IC50 | IC50 (read-out: pIC50 (converted))
1 | C[C@@H]1CC(=O)NN=C1c1ccc2c(c1)OCC(=O)N2 | > 20 µM | > 20 µM
2 | COc1ccc(CCNCCC(=O)N2CCCSc3ccccc32)cc1OC | > 20 µM | > 20 µM
3 | CC12CCC3C(CCC4CC(O)CCC43C)C1CCC2=O (centres undefined) | > 20 µM | > 20 µM
4 | C[C@H](CCC(=O)NCCS(=O)(=O)O)[C@H]1CC[C@H]2[C@@H]3[C@@H](O)CC4C[C@H](O)CC[C@]4(C)[C@H]3CC[C@]12C (some centres undefined) | > 20 µM | > 20 µM
5 | C=C1C(=O)OC2C[C@@]3(C)CCC[C@H](C)C3=CC12 (some centres undefined) | > 20 µM | > 20 µM
6 | CC12CCC(=O)C=C1CCC1C3CC[C@](C)(O)C3(C)CC(O)[C@@]12F (some centres undefined) | > 20 µM | > 20 µM
7 | CCCCCC(=O)O[C@]1(C(C)=O)CCC2C3CCC4=CC(=O)CCC4(C)C3CCC21C (some centres undefined) | > 20 µM | > 20 µM
8 | CC(C)(O)[C@@H]1CC[C@](C)(C2[C@@H](O)C[C@@]3(C)[C@H]4C[C@H](O[C@H]5OC(CO)[C@H](O)C(O)C5O)[C@H]5C(C)(C)C(O[C@@H]6OC[C@@H](O)C(O)C6O)CC[C@@]56C[C@@]46CC[C@]23C)O1 (some centres undefined) | > 20 µM | > 20 µM
9 | CN(C(=O)CO/N=C(/c1ccccc1)c1ccc2c(c1)CN1CC(=O)NC1=N2)C1CCCCC1 | > 20 µM | > 20 µM
10 | CNc1nccc(-c2cc3cc(C(=O)N[C@@H](CN(c4ccccc4)c4ncccn4)C(N)=O)ccc3[nH]2)n1 | > 20 µM | > 20 µM
11 | O=C(O)c1ccc(N[C@H]2OC[C@H](O)[C@@H](O)[C@H]2O)cc1 | > 20 µM | > 20 µM
12 | CC[C@@H]1CCN[C@H](C(=O)N[C@H]([C@H]2O[C@H](SC)[C@H](O)[C@@H](O)[C@H]2O)[C@H](C)Cl)C1 | > 20 µM | > 20 µM
13 | CC(C)N(C(=O)CN1C(=O)[C@@H](NC(=O)Nc2cccc(C(=O)O)c2)C(=O)N(c2ccccc2)c2ccccc21)c1ccccc1 | > 20 µM | > 20 µM
14 | Cc1cc(C)c(CNC(=O)c2cc(Cl)c3c(c2C)OC(C)([C@H]2CC[C@H](N(C)C)CC2)O3)c(=O)[nH]1 (some centres undefined) | > 20 µM | > 20 µM
15 | CC12CCCC1C1CC[C@H]3CCCC[C@]3(C)C1CC2 (some centres undefined) | > 20 µM | > 20 µM
16 | COc1ccc2c3c1O[C@H]1[C@@H](O)C=C[C@H]4[C@@H](C2)[N@+](C)([O-])CC[C@@]341 | > 20 µM | > 20 µM
17 | C[C@@H]1CC[C@@]2(OC1)O[C@H]1C[C@H]3[C@H]4CC[C@H]5C[C@@H](O[C@@H]6O[C@H](CO)[C@@H](O[C@@H]7O[C@H](CO)[C@@H](O)[C@H](O)[C@H]7O)[C@H](O)[C@H]6O)CC[C@@]5(C)[C@H]4CC[C@]3(C)[C@H]1[C@@H]2C | > 20 µM | > 20 µM
18 | CC(=O)OCC(=O)[C@@]1(O)CC[C@H]2C3CCC4=CC(=O)C=CC4(C)[C@H]3C(=O)CC21C (some centres undefined) | > 20 µM | > 20 µM
19 | C#C[C@]1(O)CC[C@H]2[C@@H]3CCC4=CC(=NO)CC[C@@H]4[C@H]3CC[C@@]21CC | > 20 µM | > 20 µM

Row | Structure (SMILES) | IC50 | IC50 (read-out: pIC50 (converted))
20 | O=C(O)c1nn(-c2ccc(S(=O)(=O)O)cc2)c(O)c1/N=N/c1ccc(S(=O)(=O)O)cc1 | > 20 µM | > 20 µM
21 | COC(=O)C1=C(C)NC(C)=C(C(=O)O[C@@H]2CCN(Cc3ccccc3)C2)[C@H]1c1cccc([N+](=O)[O-])c1 | > 20 µM | > 20 µM
22 | CCOC(=O)[C@H](CCc1ccccc1)CC1(C(=O)N[C@H]2CCc3ccccc3N(CC(=O)O)C2=O)CCCC1 | > 20 µM | > 20 µM
23 | COc1ccc(CC(C)C(C)Cc2ccc(OC)c(OC)c2)cc1OC (centres undefined) | > 20 µM | > 20 µM
24 | C1CN1c1nc(N2CC2)nc(N2CC2)n1 | > 20 µM | > 20 µM
25 | O=C(C1CCCCC1)N1CC(=O)N2CCCc3ccccc3C2C1 (centres undefined) | > 20 µM | > 20 µM
26 | O=C(CO)[C@@H]1CCCN1C(=O)[C@@H]1CCCN1C(=O)NCc1ccccc1 | > 20 µM | > 20 µM
27 | OCC1OC(Oc2ccc(O)cc2)C(O)C(O)C1O (centres undefined) | > 20 µM | > 20 µM
28 | Oc1c(Cc2ccccc2)ccc2ccccc12 | > 20 µM | > 20 µM
29 | C#CCN(C)C(C)Cc1ccccc1 (centres undefined) | > 20 µM | > 20 µM
30 | C[C@H](N)C(=O)N[C@H](CCC(N)=O)C(=O)O (H-Ala-[dQ]-OH) | > 20 µM | > 20 µM
31 | CC(C)C(NC(=O)C(CC(=O)O)NC(=O)C(CCCCN)NC(=O)C(N)CCCNC(=N)N)C(=O)NC(Cc1ccc(O)cc1)C(=O)O (centres undefined) (H-RKDVY-OH; configuration not given here) | > 20 µM | > 20 µM
32 | CC(C)C(N)C(=O)NC(Cc1ccc(O)cc1)C(=O)O (stereo not drawn) (H-Val-Tyr-OH; configuration not given here) | > 20 µM | > 20 µM
33 | Cc1c2oc3c(C)ccc(C(=O)N[C@@H]4C(=O)N[C@@H](C(C)C)C(=O)N5CCC[C@H]5C(=O)N(C)CC(=O)N(C)[C@@H](C(C)C)C(=O)O[C@@H]4C)c3nc-2c(C(=O)N[C@@H]2C(=O)N[C@@H](C(C)C)C(=O)N3CCC[C@H]3C(=O)N(C)CC(=O)N(C)[C@@H](C(C)C)C(=O)O[C@@H]2C)c(N)c1=O (I: TVP[Sar][NMeV] / II: TVP[Sar][NMeV]; ester I:1-I:C, II:1-II:C; linker I:N-II:N via Actinocin(1to9)) | > 20 µM | > 20 µM
34 | COc1cc(Br)c(CC2c3cc(OC)c(OC)cc3CCN2C)cc1OC (racemic) | > 20 µM | > 20 µM
35 | CC(C)CC(NC(=O)CCN)C(=O)O (racemic) | > 20 µM | > 20 µM
36 | C/N=C(\NS(=O)(=O)c1ccc(Cl)cc1)N1C[C@@H](c2ccccc2)C(c2ccc(Cl)cc2)=N1 (racemic) | > 20 µM | > 20 µM
37 | CC(C(O)c1ccccc1)N(C)C (racemic) | > 20 µM | > 20 µM
